Measured values: US20240239801A1, “PYRIMIDO[5,4,D]PYRIMIDINE COMPOUNDS, COMPOSITIONS COMPRISING THEM AND USES THEREOF” (Université de Montréal, priority 2021, published 2024)

Tests used:
Assay in all cases: Phospho-ERK inhibition, AlphaLISA SureFire Ultra p-ERK 1/2
Format in all cases: cell-based, human
Calu6 pERK = settings: Table D-2; for Calu6 pERK, value in parentheses, % inhibition: % Ymin of pERK IC50 curve
Summary of the method: (§1)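 IC50 derived by four-parameter fitting of % inhibition, with DMSO as 0% and 1 μM trametinib subtracted as background. Signal is AlphaLISA p-ERK1/2 (Thr202/Tyr204) in lysates of overnight-seeded cells (RPMI-1640, 5% FBS) treated 1 h with ten concentrations from 30 or 10 μM to 0.33 nM, 0.5% DMSO.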

HepG2 pERK = settings: Table D-1; for HepG2 pERK, value in parentheses, % inhibition: % Ymin of pERK IC50 curve
Summary of the method: as §1

IPC298 pERK = settings: Table D-1; for IPC298 pERK, value in parentheses, % inhibition: % Ymin of pERK IC50 curve
Summary of the method: as §1

Lovo pERK = settings: Table D-2; for pERK curve Ymin (%): % Ymin of pERK IC50 curve
Summary of the method: as §1

Mewo pERK = settings: Table D-2; for Mewo pERK, value in parentheses, % inhibition: % Ymin of pERK IC50 curve
Summary of the method: as §1

NCI-H2122 pERK = settings: Table D-2; for NCI-H2122 pERK, value in parentheses, % inhibition: % Ymin of pERK IC50 curve
Summary of the method: as §1

NCI-H358 pERK = settings: Table D-2; for NCI-H358 pERK, value in parentheses, % inhibition: % Ymin of pERK IC50 curve
Summary of the method: as §1

NCIH1755 pERK = settings: Table D-2; for Ymin of pERK inhibition curve (%): % Ymin of pERK IC50 curve
Summary of the method: as §1

NCIH2087 pERK = settings: Table D-2
Summary of the method: as §1

SK-MEL30 pERK = settings: Table D-1; for SK-MEL30 pERK, value in parentheses, % inhibition: % Ymin of pERK IC50 curve
Summary of the method: as §1

SW620 pERK = settings: Table D-2; for pERK IC50 curve bottom (Ymin), %: % Ymin of pERK IC50 curve
Summary of the method: as §1

| Ymin of pERK IC50 curve (%) (NCIH2087 pERK) | pERK IC50 curve bottom (Ymin), % (SW620 pERK) | IC50 (Calu6 pERK) [nM] | IC50 (HepG2 pERK) [nM] | IC50 (IPC298 pERK) [nM] | IC50 (Lovo pERK) [nM] | IC50 (Mewo pERK) [nM] | IC50 (NCI-H2122 pERK) [nM] | IC50 (NCI-H358 pERK) [nM] | IC50 (NCIH1755 pERK) [nM] | IC50 (NCIH2087 pERK) [nM] | Structure (SMILES) | Calu6 pERK, value in parentheses, % inhibition (Calu6 pERK) | HepG2 pERK, value in parentheses, % inhibition (HepG2 pERK) | IPC298 pERK, value in parentheses, % inhibition (IPC298 pERK) | pERK curve Ymin (%) (Lovo pERK) | Mewo pERK, value in parentheses, % inhibition (Mewo pERK) | NCI-H2122 pERK, value in parentheses, % inhibition (NCI-H2122 pERK) | NCI-H358 pERK, value in parentheses, % inhibition (NCI-H358 pERK) | Ymin of pERK inhibition curve (%) (NCIH1755 pERK) | SK-MEL30 pERK, value in parentheses, % inhibition (SK-MEL30 pERK) | also measured |
| --- | --- | --- | --- | --- | --- | --- | --- | --- | --- | --- | --- | --- | --- | --- | --- | --- | --- | --- | --- | --- | --- |
| (2) % | (−13) % | – | – | – | – | – | – | – | – | – | Cc1c(F)cccc1S(=O)(=O)Nc1ccc(F)c(Nc2ncnc3cnc(-n4cnc5c(-c6cccnc6)cccc54)nc23)c1F [Example 114] | (8) % | (14) % | (1) % | (4) % | (−12) % | (0) % | (−4) % | (−5) % | (−9) % | IC50 (Calu6 pERK; Homo sapiens, Calu-6): 30 to 300 nM; IC50 (HepG2 pERK; Homo sapiens, HepG2): 30 to 300 nM; IC50 (IPC298 pERK; Homo sapiens, IPC-298): 30 to 300 nM; IC50 (Lovo pERK; Homo sapiens, LoVo): < 30 nM; IC50 (Mewo pERK; Homo sapiens, MeWo): 30 to 300 nM; IC50 (NCI-H2122 pERK; Homo sapiens, NCI-H2122): 30 to 300 nM; IC50 (NCI-H358 pERK; Homo sapiens, NCI-H358): > 300 nM; IC50 (NCIH1755 pERK; Homo sapiens, NCI-H1755): 30 to 300 nM; IC50 (NCIH2087 pERK; Homo sapiens, NCI-H2087): 30 to 300 nM; IC50 (SK-MEL30 pERK; Homo sapiens, SK-MEL-30): 30 to 300 nM; IC50 (SW620 pERK; Homo sapiens, SW-620): > 300 nM |
| (3) % | (−7) % | 30 to 300 | 30 to 300 | 30 to 300 | 30 to 300 | 30 to 300 | > 300 | 30 to 300 | < 30 | < 30 | O=S(=O)(Nc1ccc(F)c(Nc2ncnc3cnc(-n4cnc5c(N6CCC7(CCCO7)CC6)cccc54)nc23)c1F)c1cccc(Cl)c1Cl [Example 129] | (−1) % | (−2) % | (17) % | (−2) % | (−5) % | (−14) % | (−3) % | (−2) % | (16) % | IC50 (SK-MEL30 pERK): < 30 nM; IC50 (SW620 pERK): > 300 nM |

The next lines start with the molecule.

| Structure (SMILES) | Ymin of pERK IC50 curve (%) (NCIH2087 pERK) | pERK IC50 curve bottom (Ymin), % (SW620 pERK) | IC50 (Calu6 pERK) [nM] | IC50 (HepG2 pERK) [nM] | IC50 (IPC298 pERK) [nM] | IC50 (Lovo pERK) [nM] | IC50 (Mewo pERK) [nM] | IC50 (NCI-H2122 pERK) [nM] | IC50 (NCI-H358 pERK) [nM] | IC50 (NCIH1755 pERK) [nM] | IC50 (NCIH2087 pERK) [nM] | Calu6 pERK, value in parentheses, % inhibition (Calu6 pERK) | HepG2 pERK, value in parentheses, % inhibition (HepG2 pERK) | IPC298 pERK, value in parentheses, % inhibition (IPC298 pERK) | pERK curve Ymin (%) (Lovo pERK) | Mewo pERK, value in parentheses, % inhibition (Mewo pERK) | NCI-H2122 pERK, value in parentheses, % inhibition (NCI-H2122 pERK) | NCI-H358 pERK, value in parentheses, % inhibition (NCI-H358 pERK) | Ymin of pERK inhibition curve (%) (NCIH1755 pERK) | SK-MEL30 pERK, value in parentheses, % inhibition (SK-MEL30 pERK) | also measured |
| --- | --- | --- | --- | --- | --- | --- | --- | --- | --- | --- | --- | --- | --- | --- | --- | --- | --- | --- | --- | --- | --- |
| COc1ccc(S(=O)(=O)Nc2ccc(F)c(Nc3ncnc4cnc(-n5cnc6c(N)cccc65)nc34)c2F)c(C)c1Cl [Example 112] | (−7) % | (11) % | 30 to 300 | 30 to 300 | 30 to 300 | 30 to 300 | < 30 | 30 to 300 | 30 to 300 | < 30 | < 30 | (1) % | (−10) % | (1) % | (−1) % | (12) % | (−15) % | (−8) % | (12) % | (6) % | IC50 (SK-MEL30 pERK): < 30 nM; IC50 (SW620 pERK): 30 to 300 nM |
| Cc1ccc2c(Nc3cccc(Cl)c3F)nccc2c1NC(=O)c1csc2c(N)ncnc12 [Belvarafenib, reference compound] | – | – | – | – | – | – | – | – | – | – | – | (−39) % | (−36) % | (−63) % | (−12) % | (−116) % | (−9) % | (−122) % | (−79) % | (−45) % | IC50 (Calu6 pERK; Homo sapiens, Calu-6): 30 to 300 nM; IC50 (HepG2 pERK; Homo sapiens, HepG2): 30 to 300 nM; IC50 (IPC298 pERK; Homo sapiens, IPC-298): 30 to 300 nM; IC50 (Lovo pERK; Homo sapiens, LoVo): < 30 nM; IC50 (Mewo pERK; Homo sapiens, MeWo): 30 to 300 nM; IC50 (NCI-H2122 pERK; Homo sapiens, NCI-H2122): 30 to 300 nM; IC50 (NCI-H358 pERK; Homo sapiens, NCI-H358): 30 to 300 nM; IC50 (NCIH1755 pERK; Homo sapiens, NCI-H1755): 30 to 300 nM; IC50 (NCIH2087 pERK; Homo sapiens, NCI-H2087): < 30 nM; IC50 (SK-MEL30 pERK; Homo sapiens, SK-MEL-30): < 30 nM; IC50 (SW620 pERK; Homo sapiens, SW-620): 30 to 300 nM |
| Cc1c(F)cccc1S(=O)(=O)Nc1ccc(F)c(Nc2ncnc3cnc(-n4cc(C(=O)N(C)Cc5ccncc5)c5ccccc54)nc23)c1F [Example 98] | (6) % | (36) % | 30 to 300 | < 30 | 30 to 300 | 30 to 300 | 30 to 300 | 30 to 300 | 30 to 300 | < 30 | < 30 | (5) % | (27) % | (13) % | (27) % | (9) % | (26) % | (20) % | (9) % | (10) % | IC50 (SK-MEL30 pERK): < 30 nM; IC50 (SW620 pERK): 30 to 300 nM |
